From patent US20240190841A1, “MODULATORS OF BCL6 PROTEOLYSIS AND ASSOCIATED METHODS OF USE” (Arvinas Operations, Inc., priority 2022, published 2024) come the findings set out here.

This assay addresses T1, BCL6 (Homo sapiens, UniProt P41182).
T1 construct: endogenous in cells; host or cells: T47D breast cancer epithelial cells
The assay is described as follows: Immunofluorescence high content imaging of BCL6 degradation in T47D cells. Type of assay: cell-based. The note with it: T47D breast cancer epithelial cells, 3 days incubation. An outline of the steps:
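T47D breast cancer cells treated 3 days at 37 °C with an 11-point 3-fold dilution series (top final 0.1 or 1 μM). Fixed with 4% PFA, Triton-permeabilised, stained with anti-BCL6 rabbit antibody plus Alexa-488 secondary, CellMask and Hoechst; imaged at 10×, 4 fields/well.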
As for `CNC(=O)COc1cc2cc(Nc3nc(N4CCC(O[C@H]5C[C@H](N6CCN(c7cc8c(cc7F)n(C7CCC(=O)NC7=O)c(=O)n8C)CC6)C5)CC4)ncc3Cl)ccc2n(C(C)C)c1=O` (some centres unmarked) [Compound 9, 2-({6-[(5-chloro-2-{4-[(1r,3r)-3-{4-[1-(2,6-dioxopiperidin-3-yl)-6-fluoro-3-methyl-2-oxo-2,3-dihydro-1H-1,3-benzodiazol-5-yl]piperazin-1-yl}cyclobutoxy]piperidin-1-yl}pyrimidin-4-yl)amino]-2-oxo-1-(propan-2-yl)-1,2-dihydroquinolin-3-yl}oxy)-N-methylacetamide], the 50% degradation concentration (DC50) was below 10 nM and the Dmax was at least 70%.
In the same order, the values of `CNC(=O)COc1cc2cc(Nc3nc(N4CCC(O[C@H]5C[C@H](N6CCN(c7cc(F)c8c(c7)n(C)c(=O)n8C7CCC(=O)NC7=O)CC6)C5)CC4)ncc3Cl)ccc2n(C(C)C)c1=O` (some centres unmarked) [Compound 10, 2-({6-[(5-chloro-2-{4-[(1r,3r)-3-{4-[1-(2,6-dioxopiperidin-3-yl)-7-fluoro-3-methyl-2-oxo-2,3-dihydro-1H-1,3-benzodiazol-5-yl]piperazin-1-yl}cyclobutoxy]piperidin-1-yl}pyrimidin-4-yl)amino]-2-oxo-1-(propan-2-yl)-1,2-dihydroquinolin-3-yl}oxy)-N-methylacetamide] are below 10 nM and at least 70%.
On the same counts, the results for `CNC(=O)COc1cc2cc(Nc3nc(N4CCC(O[C@H]5C[C@H](N6CCN(c7cc(F)c8c(c7F)n(C)c(=O)n8C7CCC(=O)NC7=O)CC6)C5)CC4)ncc3Cl)ccc2n(C(C)C)c1=O` (some centres unmarked) [Compound 27, 2-({6-[(5-chloro-2-{4-[(1r,3r)-3-{4-[1-(2,6-dioxopiperidin-3-yl)-4,7-difluoro-3-methyl-2-oxo-2,3-dihydro-1H-1,3-benzodiazol-5-yl]piperazin-1-yl}cyclobutoxy]piperidin-1-yl}pyrimidin-4-yl)amino]-2-oxo-1-(propan-2-yl)-1,2-dihydroquinolin-3-yl}oxy)-N-methylacetamide] are below 10 nM and at least 70%.
In the same order, the values of `CCn1c(=O)n(C2CCC(=O)NC2=O)c2ccc(N3CCN([C@H]4C[C@H](OC5CCN(c6ncc(Cl)c(Nc7ccc8c(c7)cc(OCC(=O)NC)c(=O)n8C(C)C)n6)CC5)C4)CC3)cc21` (some centres unmarked) [Compound 7] are below 10 nM and at least 70%.
Take `CNC(=O)COc1cc2cc(Nc3nc(N4CCC(O[C@H]5C[C@H](N6CCN(c7ccc8c(c7)n(C(C)C)c(=O)n8C7CCC(=O)NC7=O)CC6)C5)CC4)ncc3Cl)ccc2n(C(C)C)c1=O` (some centres unmarked) [Compound 12, 2-({6-[(5-chloro-2-{4-[(1r,3r)-3-{4-[1-(2,6-dioxopiperidin-3-yl)-2-oxo-3-(propan-2-yl)-2,3-dihydro-1H-1,3-benzodiazol-5-yl]piperazin-1-yl}cyclobutoxy]piperidin-1-yl}pyrimidin-4-yl)amino]-2-oxo-1-(propan-2-yl)-1,2-dihydroquinolin-3-yl}oxy)-N-methylacetamide]: the half-maximal degradation concentration (DC50) is below 10 nM and the Dmax is at least 70%.
With `CNC(=O)COc1cc2cc(Nc3nc(N4CCC(O[C@H]5C[C@H](N6CCN(c7ccc8c(c7F)[C@@H](C)N([C@H]7CCC(=O)NC7=O)C8=O)[C@H](C)C6)C5)CC4)ncc3Cl)ccc2n(C(C)C)c1=O` (single isomer, unassigned) [Compound 30], the DC50 is 10 to 50 nM and the Dmax was below 50%.
In the same order, the values of `CNC(=O)COc1cc2cc(Nc3nc(N4CCC(O[C@H]5C[C@H](N6CCN(c7cccc8c7n(C)c(=O)n8C7CCC(=O)NC7=O)CC6)C5)CC4)ncc3Cl)ccc2n(C(C)C)c1=O` (some centres unmarked) [Compound 2, 2-({6-[(5-chloro-2-{4-[(1r,3r)-3-{4-[1-(2,6-dioxopiperidin-3-yl)-3-methyl-2-oxo-2,3-dihydro-1H-1,3-benzodiazol-4-yl]piperazin-1-yl}cyclobutoxy]piperidin-1-yl}pyrimidin-4-yl)amino]-2-oxo-1-(propan-2-yl)-1,2-dihydroquinolin-3-yl}oxy)-N-methylacetamide] are below 10 nM and at least 70%.
As for `CNC(=O)COc1cc2cc(Nc3nc(N4CCC(O[C@H]5C[C@H](N6CCN(c7cc(C)c8c(c7)n(C)c(=O)n8C7CCC(=O)NC7=O)CC6)C5)CC4)ncc3Cl)ccc2n(C(C)C)c1=O` (some centres unmarked) [Compound 26, 2-({6-[(5-chloro-2-{4-[(1r,3r)-3-{4-[1-(2,6-dioxopiperidin-3-yl)-3,7-dimethyl-2-oxo-2,3-dihydro-1H-1,3-benzodiazol-5-yl]piperazin-1-yl}cyclobutoxy]piperidin-1-yl}pyrimidin-4-yl)amino]-2-oxo-1-(propan-2-yl)-1,2-dihydroquinolin-3-yl}oxy)-N-methylacetamide], the 50% degradation concentration (DC50) was 10 to 50 nM and the Dmax was 50 to 70%.
In the same order, the values of `CNC(=O)COc1cc2cc(Nc3nc(N4CCC(O[C@H]5C[C@H](N6CCN(c7ccc8c(c7)n(C7CCC(=O)NC7=O)c(=O)n8C)CC6)C5)CC4)ncc3Cl)ccc2n(C(C)C)c1=O` (some centres unmarked) [Compound 11, 2-({6-[(5-chloro-2-{4-[(1r,3r)-3-{4-[3-(2,6-dioxopiperidin-3-yl)-1-methyl-2-oxo-2,3-dihydro-1H-1,3-benzodiazol-5-yl]piperazin-1-yl}cyclobutoxy]piperidin-1-yl}pyrimidin-4-yl)amino]-2-oxo-1-(propan-2-yl)-1,2-dihydroquinolin-3-yl}oxy)-N-methylacetamide] are 10 to 50 nM and below 50%.
Compound `CNC(=O)COc1cc2cc(Nc3nc(N4CCC(O[C@H]5C[C@H](N6CCN(c7ccc8ncn(C9CCC(=O)NC9=O)c8c7)CC6)C5)CC4)ncc3Cl)ccc2n(C(C)C)c1=O` (some centres unmarked) [Compound 24, 2-({6-[(5-chloro-2-{4-[(1r,3r)-3-{4-[1-(2,6-dioxopiperidin-3-yl)-1H-1,3-benzodiazol-6-yl]piperazin-1-yl}cyclobutoxy]piperidin-1-yl}pyrimidin-4-yl)amino]-2-oxo-1-(propan-2-yl)-1,2-dihydroquinolin-3-yl}oxy)-N-methylacetamide] yielded a DC50 below 10 nM and a Dmax of at least 70%.
On the same counts, the results for `CNC(=O)COc1cc2cc(Nc3nc(N4CCC(O)(CC(=O)N5CCN(c6ccc7c(c6F)CN(C6CCC(=O)NC6=O)C7=O)CC5)CC4)ncc3Cl)ccc2n(C(C)C)c1=O` (centres unmarked) [Compound 41, 2-{[6-({5-chloro-2-[4-(2-{4-[2-(2,6-dioxopiperidin-3-yl)-4-fluoro-1-oxo-2,3-dihydro-1H-isoindol-5-yl]piperazin-1-yl}-2-oxoethyl)-4-hydroxypiperidin-1-yl]pyrimidin-4-yl}amino)-2-oxo-1-(propan-2-yl)-1,2-dihydroquinolin-3-yl]oxy}-N-methylacetamide] are below 10 nM and at least 70%.
In turn, `CNC(=O)COc1cc2cc(Nc3nc(N4CCC(O[C@H]5C[C@H](N6CCN(c7ccc8c(cnn8C8CCC(=O)NC8=O)c7)CC6)C5)CC4)ncc3Cl)ccc2n(C(C)C)c1=O` (some centres unmarked) [Compound 21, 2-({6-[(5-chloro-2-{4-[(1r,3r)-3-{4-[1-(2,6-dioxopiperidin-3-yl)-1H-indazol-5-yl]piperazin-1-yl}cyclobutoxy]piperidin-1-yl}pyrimidin-4-yl)amino]-2-oxo-1-(propan-2-yl)-1,2-dihydroquinolin-3-yl}oxy)-N-methylacetamide] returned a DC50 below 10 nM and a Dmax of at least 70%.
On the same counts, the results for `CNC(=O)COc1cc2cc(Nc3nc(N4CCC(O[C@H]5C[C@H](N6CCN(c7cc8c(cc7OC)n(C7CCC(=O)NC7=O)c(=O)n8C)CC6)C5)CC4)ncc3Cl)ccc2n(C(C)C)c1=O` (some centres unmarked) [Compound 15, 2-({6-[(5-chloro-2-{4-[(1r,3r)-3-{4-[1-(2,6-dioxopiperidin-3-yl)-6-methoxy-3-methyl-2-oxo-2,3-dihydro-1H-1,3-benzodiazol-5-yl]piperazin-1-yl}cyclobutoxy]piperidin-1-yl}pyrimidin-4-yl)amino]-2-oxo-1-(propan-2-yl)-1,2-dihydroquinolin-3-yl}oxy)-N-methylacetamide] are below 10 nM and 50 to 70%.
On the same counts, the results for `CNC(=O)COc1cc2cc(Nc3nc(N4CCC(O[C@H]5C[C@H](N6CCN(c7ccc8c(c7)n(C)c(=O)n8C7CCC(=O)NC7=O)[C@@H](C)C6)C5)CC4)ncc3Cl)ccc2n(C(C)C)c1=O` (stereo partly drawn) [Compound 18, 2-({6-[(5-chloro-2-{4-[(1r,3r)-3-[(3S)-4-[1-(2,6-dioxopiperidin-3-yl)-3-methyl-2-oxo-2,3-dihydro-1H-1,3-benzodiazol-5-yl]-3-methylpiperazin-1-yl]cyclobutoxy]piperidin-1-yl}pyrimidin-4-yl)amino]-2-oxo-1-(propan-2-yl)-1,2-dihydroquinolin-3-yl}oxy)-N-methylacetamide] are below 10 nM and at least 70%.
With `CNC(=O)COc1cc2cc(Nc3nc(N4CCC(O[C@H]5C[C@H](N6CCN(c7ccc8c(c7C)n(C)c(=O)n8C7CCC(=O)NC7=O)CC6)C5)CC4)ncc3Cl)ccc2n(C(C)C)c1=O` (some centres unmarked) [Compound 19, 2-({6-[(5-chloro-2-{4-[(1r,3r)-3-{4-[1-(2,6-dioxopiperidin-3-yl)-3,4-dimethyl-2-oxo-2,3-dihydro-1H-1,3-benzodiazol-5-yl]piperazin-1-yl}cyclobutoxy]piperidin-1-yl}pyrimidin-4-yl)amino]-2-oxo-1-(propan-2-yl)-1,2-dihydroquinolin-3-yl}oxy)-N-methylacetamide], the 50% degradation concentration (DC50) was below 10 nM and the Dmax was at least 70%.
In turn, `CNC(=O)COc1cc2cc(Nc3nc(N4CCC(O[C@H]5C[C@H](N6CCN(c7ccc8c(c7)ncn8C7CCC(=O)NC7=O)CC6)C5)CC4)ncc3Cl)ccc2n(C(C)C)c1=O` (some centres unmarked) [Compound 23] came in with a half-maximal degradation concentration (DC50) below 10 nM and a Dmax of 50 to 70%.

In general, DC50 refers to the concentration giving 50% degradation. The low end stands for degradation at low concentration, the high end for degradation only at high concentration. One may read the Dmax as the largest share of the target that was removed. Higher therefore signals a fuller loss of target.
